The subject of test [1] is canaux calcium. As to the kind of experiment: Calcium flux inhibition (IC50Ca2+) on SK-N-SH nerve cells. Format: cell-based. The note with it: concentration inhibiting 50 % of Ca2+ release, read-out: IC50Ca2+ Sur cellules nerveuses SK-N-SH. From the text: Par ailleurs, le demandeur a trouvé que les amines de formule (I) et en particulier de formule (II) sont des inhibiteurs de canaux calcium (ou de flux calcique) comme […] ou […]. Or, les inhibiteurs de canaux sont connus comme actifs dans le traitement de la chute des cheveux et sur leur effet bénéfique sur la microcirculation (confère description ci-dessus). Pour qu'une substance soit reconnue comme un inhibiteur des canaux calcium, elle doit pouvoir diminuer la concentration intracellulaire en calcium ou diminuer la liaison du calcium aux protéines intracellulaires comme par exemple la calmoduline, tel que cela est notamment décrit par Galizzi, J. P. et al., J. Biol. Chem. 1987, 262 p 6947; par Y. Okamiya et al., Eur. J. Pharmacol. 1991, 205, […]. Wagner et al., J. Neurosci. 1988, 8, […]. Lee et al., Life Sci. 1984, 35, p 721; par Schoemaker H. et Lauger S. Eur. J. Pharmacol. 1985, 111, p 273 ou encore I. J. Reynolds et al., J. Pharmacol. Exp. Ther. 1986, 237, p 731. Selon le protocole indiqué dans ces documents, […]'inhibition de flux calcique des composés (3), (4), (6) et (7), en comparaison […] sont donnés dans le tableau ci-après.

For test [2], the system named is canaux calcium. The experiment in a line: Calcium flux inhibition (IC50Ca2+) on HDFa skin fibroblast cells. The format is cell-based. The note with it: concentration inhibiting 50 % of Ca2+ release, read-out: IC50Ca2+ Sur cellules issues de fibroblastes de la peau HDFa. From the text:
Par ailleurs, le demandeur a trouvé que les amines de formule (I) et en particulier de formule (II) sont des inhibiteurs de canaux calcium (ou de flux calcique) comme le vérapamil ou l'alvérine. Or, les inhibiteurs de canaux sont connus comme actifs dans le traitement de la chute des cheveux et sur leur effet bénéfique sur la microcirculation (confère description ci-dessus).
Pour qu'une substance soit reconnue comme un inhibiteur des canaux calcium, elle doit pouvoir diminuer la concentration intracellulaire en calcium ou diminuer la liaison du calcium aux protéines intracellulaires comme par exemple la calmoduline, tel que cela est notamment décrit par Galizzi, J. P. et al., J. Biol. Chem. 1987, 262 p 6947; par Y. Okamiya et al., Eur. J. Pharmacol. 1991, 205, p 49; par J. A. Wagner et al., J. Neurosci. 1988, 8, p 3354; par H. R. Lee et al., Life Sci. 1984, 35, p 721; par Schoemaker H. et Lauger S. Eur. J. Pharmacol. 1985, 111, p 273 ou encore I. J. Reynolds et al., J. Pharmacol. Exp. Ther. 1986, 237, p 731.
Selon le protocole indiqué dans ces documents, le demandeur a déterminé l'IC50Ca2+ d'inhibition de flux calcique des composés (3), (4), (6) et (7), en comparaison avec le vérapamil; les résultats sont donnés dans le tableau ci-après. IC50Ca2+ représente la concentration inhibitrice de 50 % de libération de Ca^2+.
(Calcium assays in cells follow changes in intracellular calcium, usually with a dye or a luminescent sensor.)

For test [3], the system named is coculture nerfs/muscles (cellules musculaires striées humaines). The experiment in a line: Inhibition of muscle fibre contractions in a nerve/muscle coculture model. Format: cell-based, humaines; rat. The note with it: 10, 50, 100 µM; 60 s incubation; three muscle fibres; triplicate. How it is done: La molécule de l'exemple 1 a été testée à différentes concentrations, à savoir 10, 50 et 100 µM, sur un modèle de coculture nerfs/muscles, qui permet de recréer un arc moteur en innervant des cellules musculaires striées humaines avec des explants de moelle épinière et de ganglions rachidiens d'embryons de rat.
Ce test est prédictif d'un effet inhibiteur des contractions des fibres musculaires.
Des cellules musculaires humaines, issues de prélèvements de muscles striés de donneurs sains, sont ensemencées dans des puits de 1,8 cm^2 de section (boîtes de culture de 24 puits). Après 10 jours de culture, ces cellules forment une monocouche et fusionnent. A ce stade, des explants de moelle épinière d'embryons de rat de 13 jours contenant les ganglions rachidiens sont déposés sur la culture.
La croissance des neurites est visible en dehors de l'explant de moelle épinière après un jour de culture. Les premières contractions des fibres musculaires sont observées après 5 à 6 jours de coculture et après 3 semaines, toutes les fibres musculaires au voisinage des explants se contractent.
Les cocultures sont utilisées après 21 jours, quand les fibres musculaires sont striées et possèdent des jonctions neuromusculaires différenciées matures. […]

Consider `CCN(CCCc1ccccc1)CCCc1ccccc1` [alvérine, reference compound], for which, in test [1], the IC50 turned out to be 30 µM.
In the case of `CCCCCC(=O)CCN(CCCc1ccccc1)CCC(=O)CCCCC` [compound 3], the IC50 in test [2] amounted to 18 µM; in test [1] it was 7 µM.
Turning to `CCCCCC(=O)CCN(CC)CCCc1ccccc1` [compound 4, 1-(N-éthyl, (3-phényl-)propylamino) octan-3-one], the “contractions des fibres musculaires” value in test [3] was “bloque les contractions”. The IC50 in test [2] was 30 µM; in test [1], 18 µM.
With `CCCCCC(=O)CCN(CC)CCc1ccc(OC)c(OC)c1` [compound 6], the values for the IC50 in test [2] and in test [1] were 22 µM and 32 µM, respectively.
For `CCCCCC(=O)CCN(CC)Cc1ccccc1` [compound 7], in that order: 18 µM and 17 µM.
`COc1ccc([C@@H]2Sc3ccccc3N(CCN(C)C)C(=O)[C@@H]2OC(C)=O)cc1` [diltiazem, reference compound]: the IC50 in test [1] was more than 45 µM.
Still for that read-out and setting: the result for `COC(=O)C1=C(C)NC(C)=C(C(=O)OC)C1c1ccccc1[N+](=O)[O-]` [nifédipine, reference compound] reads 29 µM.

Values taken from patent EP1506767A1, “Use of a carbonylated amine for stimulating hairgrowth and/or for slowing down their loss” (L'OREAL, priority 2003, dated 2005).
